A value given as a limit tells only on which side of the number the result lay.

Common to all, as to type: cell-based
One test has as its system N87. The test is described as follows: In vitro tumor cell proliferation assay (Cell Titer-Glo) in N87 cells. The conditions noted are these: N87 human gastric carcinoma overexpressing HER2 and HER1; 72 hours exposure; read-out: IC50, activities in N87 cell lines. From the text: (§1) The tumor cell proliferation assay used to test the compounds of the present invention involves a readout called Cell Titer-Glow® Luminescent Cell Viability Assay developed by Promega® (Cunningham, BA “A Growing Issue: Cell Proliferation Assays, Modern kits ease quantification of cell growth” The Scientist 2001, 15(13), 26, and Crouch, S P et al., “The use of ATP bioluminescence as a measure of cell proliferation and cytotoxicity” Journal of Immunological Methods 1993, 160, 81-88), that measures inhibition of cell proliferation. Generation of a luminescent signal corresponds to the amount of ATP present, which is directly proportional to the number of metabolically active (proliferating) cells. A431 cells [human epidermoid carcinoma, ATCC # HTB-20, overexpressing HER1 (EGFR, ErbB1)] and N87 [human gastric carcinoma, ATCC # CRL-1555, overexpressing HER2 (ErbB2) and HER1 (EGFR, ErbB1)] were plated at a density of 2.5×10^3 cells/well in 96 well black-clear bottom tissue culture plates in RPMI media with 10% Fetal Bovine Serum and incubated at 37° C. Twenty-four hours later, test compounds are added at a final concentration range from as high 100 μm to as low […] depend on the activities of the tested compounds in serial dilutions at a final DMSO concentration of 0.1%. Cells were incubated for 72 hours at 37° C. in complete growth media after addition of the test compound. After 72 hours of drug exposure, the plates were equilibrated to room temperature for approximately 30 min. Then, using a Promega Cell Titer Glo Luminescent® assay kit, lysis buffer containing 100 microliters of the enzyme luciferase and its substrate, luciferin mixture, was added to each well. The plates were mixed for 2 min on orbital shaker to ensure cell lysis and incubated for 10 min at room temperature to stabilize luminescence signal. The samples were read on VICTOR2 using Luminescence protocol, and analyzed with Analyze5 software to generate IC50 values.
Background: Cellular ATP, detected with luciferase, serves as a proxy for viable cell number.

The test system of another test is H1975 cells. The test can be described thus: In vitro tumor cell proliferation assay (Cell Titer-Glo) in H1975 cells. The conditions noted are these: NCI-H1975; H1975 human NSCLC expressing mutant HER1 (L858R,T790M); 72 hours exposure; read-out: IC50, activities in H 1975 cell lines. From the text: The tumor cell proliferation assay used to test the compounds of the present invention involves a readout called Cell Titer-Glow® Luminescent Cell Viability Assay developed by Promega® (Cunningham, BA “A Growing Issue: Cell Proliferation Assays, Modern kits ease quantification of cell growth” The Scientist 2001, 15(13), 26, and Crouch, S P et al., “The use of ATP bioluminescence as a measure of cell proliferation and cytotoxicity” Journal of Immunological Methods 1993, 160, 81-88), that measures inhibition of cell proliferation. Generation of a luminescent signal corresponds to the amount of ATP present, which is directly proportional to the number of metabolically active (proliferating) cells.
H1975 cells [human non small cell lung carcinoma, ATCC # CRL-5908, expressing mutant HER1 [(EGFR, ErbB1)(L858R,T790M] were plated at a density of 3×10^3 cells/well in 96 well black-clear bottom tissue culture plates in RPMI media with 10% Fetal Bovine Serum and incubated at 37° C. Twenty-four hours later, test compounds are added at a final concentration range from as high 10 uM to as low 64 pM depending on the activities of the tested compounds in serial dilutions at a final DMSO concentration of 0.1%. Cells were incubated for 72 hours at 37° C. in complete growth media after addition of the test compound. After 72 hours of drug exposure, the plates were equilibrated to room temperature for approximately 30 min. Then, using a Promega Cell Titer Glo Luminescent® assay kit, lysis buffer containing 100 microliters of the enzyme luciferase and its substrate, luciferin mixture, was added to each well. The plates were mixed for 2 min on orbital shaker to ensure cell lysis and incubated for 10 min at room temperature to stabilize luminescence signal. The samples were read on VICTOR2 using Luminescence protocol, and analyzed with Analyze5 software to generate IC50 values.

A further test relates to A431 cells. The test is described as follows: In vitro tumor cell proliferation assay (Cell Titer-Glo) in A431 cells. The following applies: Homo sapiens, A-431, 72 h, A431 human epidermoid carcinoma overexpressing HER1; 72 hours exposure; read-out: IC50, activities in A431 cell lines.
Description: as §1

A word on the IC50: it is the midpoint of a concentration-inhibition curve. Take `CN(C)C/C=C/C(=O)N1CCc2c(sc3ncnc(Nc4ccc(Br)c(Cl)c4)c23)C1` [Example 172, N-(4-bromo-3-chlorophenyl)-7-[(2E)-4-(dimethylamino)but-2-enoyl]-5,6,7,8-tetrahydropyrido [4′,3′:4,5]thieno[2,3-d]pyrimidin-4-amine]: the IC50 was less than 200 nM in the test on N87, 200 to 1000 nM with H1975 cells and 200 to 1000 nM in the test on A431 cells.
Take `CC(O)CN(C/C=C/C(=O)N1CCc2c(sc3ncnc(Nc4ccc(OCc5ccccn5)c(Cl)c4)c23)C1)CC(C)O` (stereo not shown) [Example 52, 1,1′-({(2E)-4-[4-{[3-chloro-4-(pyridin-2-ylmethoxy)phenyl]amino}-5,8-dihydropyrido [4′,3′:4,5]thieno[2,3-d]pyrimidin-7(6H)-yl]-4-oxobut-2-en-1-yl}imino)dipropan-2-ol]: the IC50 was 200 to 5000 nM in the test with N87, 1000 to 10000 nM in the test on H1975 cells and 1000 to 10000 nM with A431 cells.
As for `CN(C)C/C=C/C(=O)N1CCc2c(sc3ncnc(Nc4ccc5c(c4)CCC5)c23)C1` [Example 185, N-(2,3-dihydro-1H-inden-5-yl)-7-[(2E)-4-(dimethylamino)but-2-enoyl]-5,6,7,8-tetrahydropyrido [4′,3′:4,5]thieno[2,3-d]pyrimidin-4-amine], the IC50 in the test on N87 is less than 200 nM; in the test on H1975 cells, 1000 to 10000 nM; with A431 cells, 200 to 1000 nM.
On to `O=C(/C=C/Cn1ccnc1)N1CCc2c(sc3ncnc(Nc4ccc(F)c(Cl)c4)c23)C1` [Example 34, N-(3-chloro-4-fluorophenyl)-7-[(2E)-4-(1H-imidazol-1-yl)but-2-enoyl]-5,6,7,8-tetrahydropyrido [4′,3′:4,5]thieno[2,3-d]pyrimidin-4-amine], for which the half-inhibitory concentration (IC50) in the test with H1975 cells and in the test with A431 cells was 1000 to 10000 nM in each case.
With `CC(C)N(C)C/C=C/C(=O)N1CCc2c(sc3ncnc(Nc4ccc5c(cnn5Cc5cccc(F)c5)c4)c23)C1` [Example 123, N-[1-(3-fluorobenzyl)-1H-indazol-5-yl]-7-{(2E)-4-[isopropyl(methyl)amino]but-2-enoyl}-5,6,7,8-tetrahydropyrido [4′,3′:4,5]thieno[2,3-d]pyrimidin-4-amine], the IC50 in the test with N87, with H1975 cells and in the test with A431 cells was less than 200 nM in each case.
In the case of `CCN(C/C=C/C(=O)N1CCc2c(sc3ncnc(Nc4ccc(F)c(Cl)c4)c23)C1)C(C)C` [Example 37, N-(3-chloro-4-fluorophenyl)-7-{(2E)-4-[ethyl(isopropyl)amino]but-2-enoyl}-5,6,7,8-tetrahydropyrido [4′3′:4,5]thieno[2,3-d]pyrimidin-4-amine], the figures for the 50% inhibitory concentration (IC50) with N87, in the test on H1975 cells and in the test on A431 cells were less than 200 nM, 1000 to 10000 nM and 1000 to 10000 nM, respectively.
For `CCN(C)C/C=C/C(=O)N1CCc2c(sc3ncnc(Nc4cccc(Br)c4)c23)C1` [Example 186, N-(3-bromophenyl)-7-{(2E)-4-[ethyl(methyl)amino]but-2-enoyl}-5,6,7,8-tetrahydropyrido [4′,3′:4,5]thieno[2,3-d]pyrimidin-4-amine], the half-inhibitory concentration (IC50) was less than 200 nM with N87, 200 to 1000 nM in the test with H1975 cells and 200 to 1000 nM in the test with A431 cells.
Turning to `Cc1cc(Nc2ncnc3sc4c(c23)CCN(C(=O)/C=C/CN(C)C)C4)ccc1F` [Example 182, 7-[(2E)-4-(dimethylamino)but-2-enoyl]-N-(4-fluoro-3-methylphenyl)-5,6,7,8-tetrahydropyrido [4′,3′:4,5]thieno[2,3-d]pyrimidin-4-amine], the half-maximal inhibitory concentration (IC50) with N87 was less than 200 nM; with H1975 cells, 1000 to 10000 nM; in the test with A431 cells, 200 to 1000 nM.
Taken in the same sequence, the figures for `O=C(C#CCCN1CCCCC1)N1CCc2c(sc3ncnc(Nc4ccc(OCc5ccccn5)c(Cl)c4)c23)C1` [Example 132, N-[3-chloro-4-(pyridin-2-ylmethoxy)phenyl]-7-(5-piperidin-1-ylpent-2-ynoyl)-5,6,7,8-tetrahydropyrido[4′,3′:4,5]-thieno[2,3-d]pyrimidin-4-amine] were less than 200 nM, 200 to 1000 nM and 200 to 1000 nM.
In the case of `O=C(/C=C/CN1CCOCC1)N1CCc2c(sc3ncnc(Nc4ccc5c(ccn5Cc5ccccn5)c4)c23)C1` [Example 120, 7-[(2E)-4-morpholin-4-ylbut-2-enoyl]-N-[1-(pyridin-2-ylmethyl)-1H-indol-5-yl]-5,6,7,8-tetrahydropyrido [4′,3′:4,5]thieno[2,3-d]pyrimidin-4-amine], the IC50 with N87 is less than 200 nM; with A431 cells, 200 to 1000 nM.
Turning to `CC(C)N(C)C/C=C/C(=O)N1CCc2c(sc3ncnc(Nc4ccc(F)c(Cl)c4)c23)C1` [Example 36, N-(3-chloro-4-fluorophenyl)-7-{(2E)-4-[isopropyl(methyl)amino]but-2-enoyl}-5,6,7,8-tetrahydropyrido[4′,3′:4,5]thieno[2,3-d]pyrimidin-4-amine], the half-inhibitory concentration (IC50) in the test on N87 and in the test with H1975 cells was less than 200 nM in each case.
Take `CC1CCCCN1C/C=C/C(=O)N1CCc2c(sc3ncnc(Nc4ccc(Cl)c(Cl)c4)c23)C1` (stereo not shown) [Example 210, N-(3,4-dichlorophenyl)-7-[(2E)-4-(2-methylpiperidin-1-yl)but-2-enoyl]-5,6,7,8-tetrahydropyrido [4′,3′:4,5]thieno[2,3-d]pyrimidin-4-amine]: the IC50 in the test with N87 was less than 200 nM.
For the molecule `O=C(C#CCN1CCOCC1)N1CCc2c(sc3ncnc(Nc4ccc(F)c(Cl)c4)c23)C1` [Example 137, N-(3-chloro-4-fluorophenyl)-7-(4-morpholin-4-ylbut-2-ynoyl)-5,6,7,8-tetrahydropyrido [4′,3′:4,5]thieno[2,3-d]pyrimidin-4-amine], the results for the half-inhibitory concentration (IC50) with N87 and with A431 cells were less than 200 nM and 1000 to 10000 nM, respectively.
Taken in the same sequence, the figures for `C#Cc1cccc(Nc2ncnc3sc4c(c23)CCN(C(=O)/C=C/CN2CCN(C)CC2)C4)c1` [Example 18, N-(3-ethynylphenyl)-7-[(2E)-4-(4-methylpiperazin-1-yl)but-2-enoyl]-5,6,7,8-tetrahydropyrido [4′,3′:4,5]thieno[2,3-d]pyrimidin-4-amine] were less than 200 nM and less than 200 nM.
For `CN(C/C=C/C(=O)N1CCc2c(sc3ncnc(Nc4ccc(F)c(Cl)c4)c23)C1)C(C)(C)C` [Example 55, 7-{(2E)-4-[tert-butyl(methyl)amino]but-2-enoyl}-N-(3-chloro-4-fluorophenyl)-5,6,7,8-tetrahydropyrido [4′,3′:4,5]thieno[2,3-d]pyrimidin-4-amine], the figures for the IC50 in the test on N87 and in the test with H1975 cells were less than 200 nM and 200 to 1000 nM, respectively.
Turning to `C#Cc1cccc(Nc2ncnc3sc4c(c23)CCN(C(=O)C#CCN2CCOCC2)C4)c1` [Example 138, N-(3-ethynylphenyl)-7-(4-morpholin-4-ylbut-2-ynoyl)-5,6,7,8-tetrahydropyrido [4′,3′:4,5]thieno[2,3-d]pyrimidin-4-amine], the values for the 50% inhibitory concentration (IC50) with N87 and in the test on A431 cells were less than 200 nM and 200 to 1000 nM, respectively.
Take `CN(C/C=C/C(=O)N1CCc2c(sc3ncnc(Nc4ccc5c(ccn5Cc5ccccc5)c4)c23)C1)C(C)(C)C` [Example 131, N-(1-benzyl-1H-indol-5-yl)-7-{(2E)-4-[tert-butyl(methyl)amino]but-2-enoyl}-5,6,7,8-tetrahydropyrido [4′,3′:4,5]thieno[2,3-d]pyrimidin-4-amine]: the IC50 with N87 was less than 200 nM.
